The text below walks through data of ChEMBL document CHEMBL3627690, “Scaffold-Hopping and Structure-Based Discovery of Potent, Selective, And Brain Penetrant N-(1H-Pyrazol-3-yl)pyridin-2-amine Inhibitors of Dual Leucine Zipper Kinase (DLK, MAP3K12)” (J Med Chem, 2015).

A value given as a limit tells only on which side of the number the result lay.

The first series relates to human MDR1. As to the kind of experiment: Efflux ratio of permeability across basolateral to apical over apical to basolateral side in MDCK cells transfected with human MDR1 at 5 uM by LC-MS/MS analysis. Conditions: dog.
Broadly, the efflux ratio is the permeability from basolateral to apical divided by that in the opposite direction, in the common usage. On to `N#Cc1ccnc(Nc2cc(C3CN(C4COC4)C3)n(C3CCCC3)n2)c1`, for which the efflux ratio at 5 µM stood at 3.3.
Regarding `CC(C)n1nc(Nc2cc(C(F)(F)F)ccn2)cc1C1CCNCC1`, the efflux ratio at 5 µM amounted to 36.
For `N#Cc1ccnc(Nc2cc(C3CCN(C4COC4)CC3)n(C3CCOC3)n2)c1` (racemic), the efflux ratio at 5 µM is 7.6.
As for `N#Cc1ccnc(Nc2cc(C3CCN(C4COC4)CC3)n(C3CCC(F)(F)C3)n2)c1` (racemic), the efflux ratio at 5 µM was found to be 5.8.
Take `N#Cc1ccnc(Nc2cc(C3CCN(C4COC4)C3)n(C3CCCC3)n2)c1` (racemic): the efflux ratio at 5 µM stood at 3.7.
Same read-out and setting: with `N#Cc1ccnc(Nc2cc(C3CCN(C4COC4)CC3)n(C3CCOCC3)n2)c1` the figure was 15; with `N#Cc1ccnc(Nc2cc(C3CCOC3)n(C3CCCC3)n2)c1` (racemic), 1.

Another series concerns human MDR1. As to the kind of experiment: Permeability across apical to basolateral side in MDCK cells transfected with human MDR1 at 5 uM by LC-MS/MS analysis. The conditions noted are these: dog.
One may read the Papp A→B as how fast a substance crosses the layer from the apical side. The low end stands for poor permeation, the high end for ready permeation. For `N#Cc1ccnc(Nc2cc(C3CN(C4COC4)C3)n(C3CCCC3)n2)c1`, the Papp A→B at 5 µM stood at 4.9 ×10⁻⁶ cm/s.
The same measure, in the same setting: with `CC(C)n1nc(Nc2cc(C(F)(F)F)ccn2)cc1C1CCNCC1` the figure was 0.5 ×10⁻⁶ cm/s; with `N#Cc1ccnc(Nc2cc(C3CCN(C4COC4)CC3)n(CC3CCC3)n2)c1`, 1.8 ×10⁻⁶ cm/s.
Same read-out and setting: the result for `N#Cc1ccnc(Nc2cc(C3CCN(C4COC4)CC3)n(C3CCOC3)n2)c1` (racemic) reads 1.9 ×10⁻⁶ cm/s; that for `N#Cc1ccnc(Nc2cc(C3CCN(C4COC4)CC3)n(C3CCC(F)(F)C3)n2)c1` (racemic), 4.2 ×10⁻⁶ cm/s.
Same read-out and setting: the result for `N#Cc1ccnc(Nc2cc(C3CCN(C4COC4)C3)n(C3CCCC3)n2)c1` (racemic) reads 5.6 ×10⁻⁶ cm/s; that for `N#Cc1ccnc(Nc2cc(C3CCN(C4COC4)CC3)n(C3CCOCC3)n2)c1`, 1.7 ×10⁻⁶ cm/s; that for `N#Cc1ccnc(Nc2cc(C3CCOC3)n(C3CCCC3)n2)c1` (racemic), 2.7 ×10⁻⁶ cm/s.

In the next series the target is T1, Mitogen-activated protein kinase kinase kinase 12 (Homo sapiens, UniProt Q12852).
T1 sequence (Q12852 whole entry): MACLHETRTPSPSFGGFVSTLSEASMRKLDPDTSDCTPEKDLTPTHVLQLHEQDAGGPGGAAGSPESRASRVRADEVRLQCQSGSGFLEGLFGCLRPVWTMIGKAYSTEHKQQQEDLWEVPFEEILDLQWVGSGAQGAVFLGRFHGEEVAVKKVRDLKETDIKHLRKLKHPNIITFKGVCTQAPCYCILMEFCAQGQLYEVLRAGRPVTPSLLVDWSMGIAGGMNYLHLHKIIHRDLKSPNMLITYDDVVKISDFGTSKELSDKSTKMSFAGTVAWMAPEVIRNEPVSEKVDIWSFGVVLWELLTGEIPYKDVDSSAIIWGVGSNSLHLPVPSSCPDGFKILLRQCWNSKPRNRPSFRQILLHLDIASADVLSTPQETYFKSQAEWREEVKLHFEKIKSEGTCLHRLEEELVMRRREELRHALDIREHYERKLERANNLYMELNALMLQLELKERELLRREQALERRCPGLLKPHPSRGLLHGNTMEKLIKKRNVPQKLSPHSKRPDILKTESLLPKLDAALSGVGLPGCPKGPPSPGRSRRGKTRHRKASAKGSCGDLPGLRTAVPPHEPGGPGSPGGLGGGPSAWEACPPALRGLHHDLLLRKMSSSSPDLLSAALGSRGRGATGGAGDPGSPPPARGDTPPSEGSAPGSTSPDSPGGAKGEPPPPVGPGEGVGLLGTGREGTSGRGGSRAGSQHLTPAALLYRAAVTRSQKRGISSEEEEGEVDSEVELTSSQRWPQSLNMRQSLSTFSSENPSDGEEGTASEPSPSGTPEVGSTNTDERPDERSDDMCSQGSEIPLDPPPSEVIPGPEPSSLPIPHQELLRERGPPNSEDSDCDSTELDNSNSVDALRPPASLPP
Nature of the series: Inhibition of Dox inducible human DLK transfected in HEK293 cells assessed as reduction in JNK phosphorylation incubated for 5.5 hrs measured by Hoechst 33342 staining based imaging analysis. Format: cell-based.
Conditions: not given
In general, IC50 refers to the concentration needed to halve the response being measured. With `N#Cc1ccnc(Nc2cc(C3CN(C4COC4)C3)n(C3CCCC3)n2)c1`, the IC50 is 459 nM.
For the compound `N#Cc1ccnc(Nc2cc(C3CCN(C4COC4)CC3)n(CC3CCC3)n2)c1`, the 50% inhibitory concentration (IC50) is 1400 nM.
On the same count and under the same terms, with `N#Cc1ccnc(Nc2cc(C3CCN(C4COC4)CC3)n(C3CCC(F)(F)C3)n2)c1` (racemic) the figure was 721 nM; with `N#Cc1ccnc(Nc2cc(C3CCN(C4COC4)C3)n(C3CCCC3)n2)c1` (racemic), 632 nM; with `N#Cc1ccnc(Nc2nc(C3CC3)c(C3CCN(C4COC4)CC3)s2)c1`, 8600 nM.
Still for that read-out and setting: with `N#Cc1ccnc(Nc2cc(C3CCOC3)n(C3CCCC3)n2)c1` (racemic) the figure was 698 nM.

The next series has as its target T1, Mitogen-activated protein kinase kinase kinase 12. As to the kind of experiment: Inhibition of N-terminally GST- tagged human DLK catalytic domain (1 to 520 amino acids) using N-terminally HIS-tagged MKK4 K131M as substrate incubated for 60 mins by TR-FRET assay.
Conditions: not given
Background: Time-resolved FRET reads energy transfer from a long-lived donor to a nearby acceptor.
The term Ki denotes a dissociation constant, usually derived from enzyme kinetics or from competition with a known ligand. Lower therefore signals a stronger hold on the target. The compound `N#Cc1ccnc(Nc2cc(C3CN(C4COC4)C3)n(C3CCCC3)n2)c1` yielded a Ki of 48 nM.
Still for that read-out and setting: with `CC(C)n1nc(Nc2cc(C(F)(F)F)ccn2)cc1C1CCNCC1` the figure was 145 nM; with `N#Cc1ccnc(Nc2cn(C3CCN(C4COC4)CC3)c(C3CCCC3)n2)c1`, more than 1600 nM; with `CC(C)n1nc(Nc2ccc(C#N)cn2)cc1C1CCNCC1`, more than 1600 nM.
On to `N#Cc1ccnc(Nc2cc(C3CCN(C4COC4)CC3)n(CC3CCC3)n2)c1`, for which the Ki worked out at 133 nM.
Regarding `N#Cc1ccnc(Nc2cc(C3CCN(C4COC4)CC3)n(C3CCOC3)n2)c1` (racemic), the inhibitory constant (Ki) amounted to 378 nM.
As to `N#Cc1ccnc(Nc2cc(C3CCN(C4COC4)CC3)n(C3CCC(F)(F)C3)n2)c1` (racemic), affinity was put at a Ki of 48 nM.
Consider `CC(C)n1nc(Nc2cc(C#N)ccn2)cc1C1CCNCC1`, for which the affinity corresponds to a Ki of 160 nM.
Same read-out and setting: with `N#Cc1ccnc(Nc2cc(C3CCN(C4COC4)C3)n(C3CCCC3)n2)c1` (racemic) the figure was 25 nM; with `N#Cc1ccnc(Nc2cc(C3CCN(C4COC4)CC3)n(C3CCOCC3)n2)c1`, 593 nM; with `N#Cc1ccnc(Nc2nc(C3CC3)c(C3CCN(C4COC4)CC3)s2)c1`, 569 nM.
In turn, `CC(C)n1nc(Nc2ccc(C(F)(F)F)cn2)cc1C1CCNCC1` came in with an inhibition constant (Ki) of more than 1600 nM.
On the same count and under the same terms, with `N#Cc1ccnc(Nc2cc(C3CCOC3)n(C3CCCC3)n2)c1` (racemic) the figure was 54 nM.
